Measured values reported in patent US12084403B2, “Linkers for antibody drug conjugates” (THE BOARD OF REGENTS OF THE UNIVERSITY OF TEXAS SYSTEM, priority 2017, dated 2024).
Starred links: 1 amine or outer side, 2 acyl side, 3 side chain; linkers in the order of their positions; H or OH if unused. Non-standard residues stand in square brackets, D forms with d. Residues, ends and D or L forms follow the SMILES beside them. *: point of attachment. EDDnp = O=[N+]([O-])c1ccc(NCCN*)c([N+](=O)[O-])c1; PABC = O=C(OCc1ccc(N[*:1])cc1)[*:2]; X1 = [N-]=[N+]=NCCOCCOCCOCC(=O)*; Cit = NC(=O)NCCC[C@H](N)C(=O)O; AEEEA = NCCOCCOCCOCC(=O)O

Legend:
human cathepsin B = human cathepsin B (Homo sapiens, UniProt P07858); test: Cathepsin B-mediated cleavage of linear and branched probes in FRET assay; format: biochemical; details: for Slope (RFU/sec): quencher (EdDnp) release rate, linear regression, triplicate; for release of EdDnp in the presence of human cathepsin B: result in words
Protocol: FIG. 2. Quencher release rate determination in Förster resonance energy transfer (FRET) assay. Each slope reflecting drug (quencher) release rate was calculated by linear regression using Graph Pad Prism 7 software. […] All assays were performed in triplicate and error bars represent SEM.
These model linker units consisted of cathepsin B-cleavable valine-citrulline (Val-Cit) with or without polyethyleneglycol (PEG) spacers. This dipeptide sequence has been used in many successful ADCs including the FDA-approved ADC Adcetris® (Katz et al., 2011). The sequence is stable in circulation but in lysosomes undergoes cathepsin B-mediated cleavage, resulting in intracellular release of payload (Dubowchik et al., 2002). Tryptophan and 2,4-dinitrophenylethylenediamine (EdDnp) were installed as a fluorophore/quencher(s) pair, which is commonly used in the Förster resonance energy transfer (FRET) assay. The release of EdDnp from each synthetic model linker unit in the presence of human cathepsin B (Table 1 and Scheme 3) was assessed. […] Without wishing to be bound by any theory, it is surmised that the structural congestion of branched probe 3 due to the lack of PEG spacers prevents cathepsin B accessing Val-Cit moieties.

[1] = Plasma stability test using pyrene probes, BALB/c mouse plasma; format: in vitro ADME; details: undiluted BALB/c mouse plasma, 37° C., HPLC
Protocol: To test this hypothesis, a panel of peptide probes containing a various amino acid at the P3 position were evaluated for plasma stability at the small-molecule level (FIG. 13B). VCit- and tripeptide probes 12a-f were first synthesized by standard solid- and liquid-phase peptide synthesis and following carbamate formation. These model probes consisted of a XVCit-PABC unit where X is none (12a), serine (12b), glutamic acid (12c), aspartic acid (12d), lysine (12e), or hydroxyacetylglycine (12f). It was assumed that serine and hydroxyacetylglycine would serve as a mimic of the hydroxy-functionalized tripeptide ADC linker with increased mouse plasma stability reported by Dorywalska et al (Dorywalska et al., 2016). In particular, the 2-hydroxyacetamide group within probe 12f is the modifier that provided the greatest stability in their report. These linkers were covalently linked to 1-pyrenemethylamine, a surrogate of hydrophobic payloads with distinct UV absorbance at 341 nm (van Geel et al., 2015). Subsequently, probes 12a-f were incubated in undiluted BALB/c plasma at 37° C. and the amount of each probe was monitored by HPLC (FIG. 13C). […] Taking into account that all probes tested were stable in human plasma and no significant degradation was observed after 2 days (FIG. 14A), the accelerated degradation observed in KVCit probe 12e may indicate that a basic side chain at the P3 position provides an additional interaction with Ces1c leading to fast bond cleavage. […] Thus, the stabilizing effect of a neutral carbonyl group at the P3 position was not as significant as that of a negatively charged carboxylic acid side chain.
Plasma stability test using pyrene probes. Each test compound (10 mM in DMSO, 2 μL) was mixed with 1 μL of 1-pyrenemethylamine (10 mM in DMSO, as an internal standard) and incubated at 37° C. for 10 min. Pooled healthy human plasma or BALB/c mouse plasma (197 μL, Innovative Research) was added to the mixture, followed by incubation at 37° C. Aliquots (10 μL) were collected at each time point (0, 1, 6, 24, 48, and 96 h) and 40 μL of cold acetonitrile containing 1% formic acid was added to precipitate proteins. Supernatant of each sample was obtained and analyzed for quantification by analytical HPLC as described above. All assays were performed at least three times in technical duplicate, and data shown are representative of the replicates.

Human liver cathepsin B = target: T1, Human liver cathepsin B (Homo sapiens, UniProt P07858); test: Cathepsin B-mediated cleavage assay using pyrene probes; format: biochemical; details: 37° C., result in words
T1 construct: Human liver cathepsin B (20 ng/μL, 100 μL, EMD Millipore); purchased EMD Millipore; host or cells: human liver (tissue-derived, as the name says)
Protocol: Next, all probes were tested for responsiveness to human cathepsin B-mediated cleavage (FIG. 14B).
Cathepsin B-mediated cleavage assay using pyrene probes. Each test compound (10 mM in DMSO, 2 μL) was mixed with 97 μL of MES buffer (25 mM MES-Na, 1 mM DTT, pH 5.0) and 1 μL of 1-pyrenemethylamine (10 mM in DMSO, as an internal standard). The mixture was incubated at 37° C. for 10 min. Human liver cathepsin B (20 ng/μL, 100 μL, EMD Millipore) in MES buffer was added to the mixture, followed by incubation at 37° C. Aliquots (10 μL) were collected at each time point (0, 0.5, 1, 3, 24, and 48 h). Cold acetonitrile containing 1% formic acid (40 μL) was added to precipitate proteins. Precipitated proteins were separated by centrifugation (15,000 g, 4° C., 30 min) and supernatant of each sample was analyzed for quantification by analytical HPLC (UV absorption at 342 nm). The amount of each probe was normalized to the peak area of the internal standard. All assays were performed at least three times in technical duplicate, and data shown are representative of the replicates.

CC(=O)N[C@@H](Cc1c[nH]c2ccccc12)C(=O)N[C@@H](CCCCNC(=O)COCCOCCOCCN=[N+]=[N-])C(=O)NCCOCCOCCOCC(=O)N[C@H](C(=O)N[C@@H](CCCNC(N)=O)C(=O)Nc1ccc(COC(=O)NCCNc2ccc([N+](=O)[O-])cc2[N+](=O)[O-])cc1)C(C)C [probe 2, Ac-Trp-Lys(-PEG3-N3)-PEG3-Val-Cit-PABC-EdDnp] (Ac-WK(X1)[AEEEA]V[Cit][PABC]-EDDnp)
Slope (RFU/sec) (human cathepsin B): 1.81 ± 0.07 RFU/sec
release of EdDnp in the presence of human cathepsin B (human cathepsin B): released EdDnp more efficiently than Linear PEG (−) 1

CC(=O)N[C@@H](Cc1c[nH]c2ccccc12)C(=O)N[C@@H](CCCCn1cc(CCC(=O)N[C@H](C(=O)N[C@@H](CCCNC(N)=O)C(=O)Nc2ccc(COC(=O)NCCNc3ccc([N+](=O)[O-])cc3[N+](=O)[O-])cc2)C(C)C)nn1)C(=O)N[C@H](C(=O)N[C@@H](CCCNC(N)=O)C(=O)Nc1ccc(COC(=O)NCCNc2ccc([N+](=O)[O-])cc2[N+](=O)[O-])cc1)C(C)C [probe 3]
Slope (RFU/sec) (human cathepsin B): 0.03 ± 0.06 RFU/sec
release of EdDnp in the presence of human cathepsin B (human cathepsin B): marginal release of EdDnp

CC(=O)N[C@@H](Cc1c[nH]c2ccccc12)C(=O)N[C@@H](CCCCNC(=O)COCCOCCOCCn1cc(CCC(=O)N[C@H](C(=O)N[C@@H](CCCNC(N)=O)C(=O)Nc2ccc(COC(=O)NCCNc3ccc([N+](=O)[O-])cc3[N+](=O)[O-])cc2)C(C)C)nn1)C(=O)NCCOCCOCCOCC(=O)N[C@H](C(=O)N[C@@H](CCCNC(N)=O)C(=O)Nc1ccc(COC(=O)NCCNc2ccc([N+](=O)[O-])cc2[N+](=O)[O-])cc1)C(C)C [probe 4]
Slope (RFU/sec) (human cathepsin B): 1.56 ± 0.05 RFU/sec
release of EdDnp in the presence of human cathepsin B (human cathepsin B): comparable to that of linear PEG (+) probe 2

Ac-Asp-Val-Cit-PABC-Sar-pyrene [probe 12d]
t1/2 [1]: 14.0 h

Ac-Glu-Val-Cit-PABC-Sar-pyrene [probe 12c]
t1/2 [1]: 19.1 h

Ac-Lys-Val-Cit-PABC-Sar-pyrene [probe 12e]
t1/2 [1]: 0.9 h

Ac-Ser-Val-Cit-PABC-Sar-pyrene [probe 12b]
t1/2 [1]: 3.1 h
human cathepsin B-mediated cleavage rate (Human liver cathepsin B): comparable with that of VCit probe 12a

Ac-Val-Cit-PABC-Sar-pyrene [probe 12a]
t1/2 [1]: 2.3 h

HOCH2CO-Gly-Val-Cit-PABC-Sar-pyrene [probe 12f]
t1/2 [1]: 5.0 h
